Test results published in patent US20180289605A1, “NON-AQUEOUS COMPOSITION FOR HAIR FRIZZ REDUCTION” (The Procter & Gamble Company, priority 2017, published 2018).

What was measured:
[1] = Dynamic Vapor Sorption (DVS) % water reduction of treated hair
Description: The % water reduction is calculated as follows:
% Water reduction=[(B−A)×100]/B

[2] = Additional evaluations: expert rating of hair switches for frizz, clean feel and greasy feel; details: non-aqueous compositions, Tables 9 and 10
Description: […] The switch is kept at high humidity (above 85%) for 2 hours. Then, ten experts are asked to rate each hair switch in terms of frizz, clean feel, and greasy feel, based on a 5 point scale, 5 being the highest and 1 being the lowest rating.
Additional non-aqueous leave-on treatment compositions are prepared (Tables 9 and 10) according to the procedure described above, which are used to treat hair switches using the procedure described above (amount of 0.10 g of composition per g of hair). The switch is kept at high humidity (above 85%) for 2 hours. Then, ten experts are asked to rate each hair switch in terms of frizz, clean feel and greasy feel, based on a 5 point scale, 5 being the highest and 1 being the lowest rating.

[3] = Class I materials, 1% wt/vol, hair 0% RH versus 90% RH, versus control hair
[4] = Class II materials, hair 0% RH versus 90% RH, versus control hair

Compound	Results of hair switch rating in words (frizz protection, clean feel, greasy feel) [2]	% Water reduction [1, 4]	other results
O=C(O)c1ccc(O)cc1O [2,4-Dihydroxybenzoic acid]	provide fizz protection with clean feel and without greasy feel negative	–	% Water reduction [1, 3]: 30%
CCCCCCCCC(CO)CCCCCC (stereo not shown) [2-Hexyl-1-decanol]	provide frizz protection with clean feel and without greasy feel negative	11%	–
O=C(OCCO)c1ccccc1O [2-Hydroxyethyl salicylate]	provide frizz protection with clean feel and without greasy feel negative	10%	–
O=C(O)c1ccc(O)c(O)c1 [3,4-Dihydroxybenzoic acid]	–	–	% Water reduction [1, 3]: 20%
O=C(O)c1cccc(O)c1 [3-Hydroxybenzoic Acid]	–	–	% Water reduction [1, 3]: 20%
Nc1ccc(O)cc1 [4-Aminophenol]	–	–	% Water reduction [1, 3]: 10%
O=S(=O)(O)c1ccc(O)cc1 [4-Hydroxybenzenesulphonic acid]	provide fizz protection with clean feel and without greasy feel negative	–	–
O=C(O)c1cc(Cl)ccc1O [5-Chlorosalicylic acid]	provide fizz protection with clean feel and without greasy feel negative	–	–
CCOC(=O)c1cc(O)c(O)c(O)c1 [Ethyl gallate]	–	17%	–
CCCCC/C=C\C/C=C\CCCCCCCC(=O)OCC [Ethyl linoleate]	–	8%	–
CCCCCCCC/C=C\CCCCCCCC(=O)OCC(O)CO (stereo not shown) [Glyceryl monooleate]	–	5%	–
CC(C)C(=O)O [Isobutyric acid]	–	5%	–
CCCCCCCCCCCCCC(=O)OC(C)C [Isopropyl myristate]	–	12%	–
CC(C)CCCCCCCCCCCCCCCOC(=O)CCCCCCCCCCCCCCC(C)C [Isostearyl isostearate]	provide frizz protection with clean feel and without greasy feel negative	11%	–
CCCCCCCC/C=C\CCCCCCCC(=O)O [Oleic Acid]	–	14%	–
C/C(=C\CO)CCC[C@H](C)CCC[C@H](C)CCCC(C)C [Phytol]	–	14%	–
CCCCCC[C@@H](O)C/C=C\CCCCCCCC(=O)O [Ricinoleic acid]	–	8.8%	–
O=C(O)c1ccccc1O [Salicylic acid]	provide fizz protection with clean feel and without greasy feel negative	–	% Water reduction ([1]; Table 6, 1% salicylic acid in ethanol:water (50:50), final pH 3.2 (column pH 3)): 30%; % Water reduction ([1]; Table 6, 1% salicylic acid in ethanol:water (50:50), final pH 4.2): 27%; % Water reduction ([1]; Table 6, 1% salicylic acid in ethanol:water (50:50), final pH 7): 22%; % Water reduction ([1]; Table 6, 1% salicylic acid in ethanol:water (50:50), final pH 10): 15%
COc1cc(/C=C/C(=O)O)ccc1O [Trans-Ferulic Acid]	–	–	% Water reduction [1, 3]: 6%
Sorbitan caprylate	–	11%	–
